Data on 3 compounds can be found in patent publication US20240251788A1, “HERBICIDE/SAFENER COMBINATION BASED ON SAFENERS FROM THE CLASS OF SUBSTITUTED [(1,5-DIPHENYL-1H-1,2,4-TRIAZOL-3-YL)OXY]ACETIC ACIDS AND THEIR SALTS” (Bayer Aktiengesellschaft, priority 2021, published 2024).

The subject of series [1] is summer wheat crop plant (TRZAS; cv. Triso). The experiment in a line: Reduction in herbicide damage to summer wheat by safener, greenhouse post-emergence application, visual scoring. It counts as in vivo. Also on record: key to Reduction in the damage by safener (difference): difference in % visual damage (0-100% scale vs untreated) due to safener. Conditions: for Reduction in the damage by safener (difference) / Reduction in the damage by safener (in %): summer wheat (TRZAS); for Damage to the plant by the herbicide (in %): in vivo. On the procedure:
(§1) The seeds of the crop plants to be treated are laid out in soil in woodfiber pots (diameter ˜ 7 cm), covered with soil and grown in a greenhouse under good conditions for germination and growth. The trial plants were treated at the early leaf stage (BBCH10-BBCH12).
The herbicides used (component B) were used in the following formulations: • B2.81: WP • B2.85: WP • B2.92: WP • Cinmethylin: EC • Clomazone: WP • Ethofumesate: WP • Flufenacet: SC • Pinoxaden: WP • Saflufenacil: WP • Bicyclopyrone: WP • Picloram: WP • Metazachlor: SC • Flumioxazin: WP • Glyphosate potassium salt: SL • Topramezone: WP
(§2) The dose of the respective herbicides was chosen here such that it causes an average degree of visually apparent damage (min. 20%, max. 75%) compared to untreated crop plants at the evaluation time on a control group of crop plants without safener treatment that were included in the same trial.
(§3) In the respective herbicide/safener combinations, the safeners (component A) in the form of wettable powders (WP) were added in the dose specified; in these cases, herbicide and safener are thus applied as a mixture.
(§4) Application was effected in each case on to the above-ground parts of the plant, at a water application rate corresponding to 300 l/ha and with addition of wetting agent (Mero, 1.5 l/h a).
In the applications that contained pinoxaden, bicyclopyrone or topramezone, the herbicidal effect was enhanced by additionally adding ammonium sulfate (2 kg/ha).
(§5) After application, the plants were cultivated under good growth conditions in a greenhouse. On account of the different mechanisms of action of the herbicides used, the damaging effect of the herbicides was fully manifested at different times depending on the herbicide, and this in turn forms the basis for assessment of the safener action in the mixtures. Therefore, the damage was scored visually, depending on the herbicide/mixture, between 11 and 21 days after application.
(§6) The damage effect was assessed visually on a scale of 0-100% by comparison with untreated control plants, and averaged over 2 repeats per treatment.

Series [2] concerns summer barley crop plant (HORVS: cv. Quench). The experiment in a line: Reduction in herbicide damage to summer barley by safener, greenhouse post-emergence application, visual scoring. It counts as in vivo. On the set-up: key to Reduction in the damage by safener (difference): difference in % visual damage, 0-100% scale vs untreated plants. Conditions: for Reduction in the damage by safener (difference) / Reduction in the damage by safener (in %): summer barley (HORVS); for Damage to the plant by the herbicide (in %): in vivo. As to the method: as §1
The herbicides used (component B) were used in the following formulations: • B2.81: WP • B2.85: WP • B2.92: WP • Clomazone: WP • Ethofumesate: WP • Flufenacet: SC • Fluroxypyr: EC • Saflufenacil: WP • Thiencarbazone-methyl: WP • Iodosulfuron-methyl-sodium: WP • Bifenox: WP • Glyphosate potassium salt: SL • Topramezone: WP
as §2, §3, §4
In the applications that contained pinoxaden or topramezone, the herbicidal effect was enhanced by additionally adding ammonium sulfate (2 kg/ha).
as §5, §6

Setting [3] is: herbicide B1.8 (pinoxaden) 200 g a.i./ha + safener 100 g a.i./ha.
Setting [4] is: herbicide B2.81 15 g a.i./ha + safener 100 g a.i./ha.
[5] abbreviates: herbicide B2.85 5 g a.i./ha + safener 100 g a.i./ha.
The mark [6] stands for this setting: herbicide B2.92 5 g a.i./ha + safener 100 g a.i./ha.
The mark [7] stands for this setting: herbicide B5.14 (clomazone) 200 g a.i./ha + safener 100 g a.i./ha.
The mark [8] stands for this setting: herbicide B5.21 (ethofumesate) 2000 g a.i./ha + safener 100 g a.i./ha.
[9] abbreviates: herbicide B9.10 (saflufenacil) 10 g a.i./ha + safener 100 g a.i./ha.
The mark [10] stands for this setting: herbicide B9.10 (saflufenacil) 20 g a.i./ha + safener 100 g a.i./ha.
[11] abbreviates: herbicide B2.68 (thiencarbazone-methyl) 30 g a.i./ha + safener 100 g a.i./ha.
Setting [12] is: herbicide B6.4 (fluroxypyr) 500 g a.i./ha + safener 100 g a.i./ha.

For `COC(=O)COc1nc(-c2ccc(Cl)cc2F)n(-c2ccc(Cl)cc2F)n1` [Compound A1, methyl {[1,5-bis(4-chloro-2-fluorophenyl)-1H-1,2,4-triazol-3-yl]oxy}acetate], the “Reduction in the damage by safener (difference)” value (from here on “Reduction … (difference)”) in series [1] (setting [3]) was 25; in series [1] (setting [4]), 70; in series [1] (setting [5]), 60; in series [1] (setting [6]), 60; in series [1] (setting [7]), 20; in series [1] (setting [8]), 70. The “Reduction … (difference)” value is on record as 15 in series [1] (setting [9]); 15 in series [1] (setting [10]); 30 in series [2] (setting [11]); 70 in series [2] (setting [4]); 50 in series [2] (setting [5]); 65 in series [2] (setting [6]). Besides, the “Reduction … (difference)” value came out at 30 in series [2] (setting [7]), 60 in series [2] (setting [8]), 20 in series [2] (setting [12]) and 20 in series [2] (setting [10]). Besides, the “Reduction in the damage by safener (in %)” value (shortened to “Reduction … (in %)”) is 71% in series [1] (setting [3]); 100% in series [1] (setting [4]); 100% in series [1] (setting [5]); 100% in series [1] (setting [6]); 50% in series [1] (setting [7]); 100% in series [1] (setting [8]). Moreover, the “Reduction … (in %)” value was 43% in series [1] (setting [9]); 38% in series [1] (setting [10]); 100% in series [2] (setting [11]); 100% in series [2] (setting [4]); 83% in series [2] (setting [5]); 100% in series [2] (setting [6]). In addition, the “Reduction … (in %)” value in series [2] (setting [7]) was determined as 75%; in series [2] (setting [8]), 100%; in series [2] (setting [12]), 100%; in series [2] (setting [10]) it was 50%.

Consider `CC1(C)CON(Cc2ccccc2Cl)C1=O` [Compound B5.14, clomazone, reference compound], for which the “Damage to the plant by the herbicide (in %)” value in series [1] and in series [2] was 40% each time.

As for `C=C[C@]1(C(=O)N[C@H]2CO[C@@H](C(=O)OC)C2)CC(c2cc(F)cc(F)c2)=NO1` (relative stereo) [Compound B2.81, methyl (2R*,4R*)-4-[[(5S)-3-(3,5-difluorophenyl)-5-vinyl-4H-isoxazole-5-carbonyl]amino]tetrahydrofuran-2-carboxylate], the “Damage to the plant by the herbicide (in %)” value in series [1] and in series [2] was 70% each time.
